The text below walks through data of patent US6855807B1 (priority 1999, dated 2005).

One test has as its target T1, kappa opioid receptor (Rattus norvegicus, UniProt P34975).
T1 construct: expressed in transfected cells; host or cells: HEK293
The test can be described thus: biochemical. Type of test: binding.

The target in the next test is T2, kappa-delta heterodimer (UniProt P32300+P34975).
T2 construct: myc; FLAG; expressed in transfected cells; host or cells: HEK293
The test can be described thus: biochemical. Type of test: binding, rat kappa, mouse delta.

Read-outs that look alike come from different tables or passages of the source.

T2 sequence (P34975 whole entry): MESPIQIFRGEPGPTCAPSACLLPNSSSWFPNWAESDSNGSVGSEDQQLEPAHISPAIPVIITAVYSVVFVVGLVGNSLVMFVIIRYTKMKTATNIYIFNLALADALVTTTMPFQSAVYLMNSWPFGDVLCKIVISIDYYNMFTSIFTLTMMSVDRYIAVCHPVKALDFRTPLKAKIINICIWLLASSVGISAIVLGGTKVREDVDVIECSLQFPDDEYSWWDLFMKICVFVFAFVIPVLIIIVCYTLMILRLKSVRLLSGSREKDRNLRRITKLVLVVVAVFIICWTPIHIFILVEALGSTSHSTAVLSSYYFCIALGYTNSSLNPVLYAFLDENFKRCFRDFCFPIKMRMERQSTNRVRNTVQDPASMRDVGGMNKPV
T2 sequence (P32300 whole entry): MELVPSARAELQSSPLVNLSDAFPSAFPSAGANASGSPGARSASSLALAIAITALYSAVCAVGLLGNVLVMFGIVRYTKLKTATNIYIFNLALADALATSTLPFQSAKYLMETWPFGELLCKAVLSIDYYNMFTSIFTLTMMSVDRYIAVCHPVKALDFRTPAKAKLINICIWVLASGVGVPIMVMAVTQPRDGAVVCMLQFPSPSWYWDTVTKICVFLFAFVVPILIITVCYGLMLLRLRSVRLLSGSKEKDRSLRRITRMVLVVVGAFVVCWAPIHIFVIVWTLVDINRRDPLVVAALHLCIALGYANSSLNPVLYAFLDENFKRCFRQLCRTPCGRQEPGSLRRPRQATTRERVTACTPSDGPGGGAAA
T1 sequence (P34975 whole entry): as the sequence (P34975 whole entry) above

In the case of `Oc1ccc2c3c1O[C@H]1c4[nH]c5c(c4C[C@@]4(O)[C@@H](C2)N(CC2CC2)CC[C@]314)C[C@@]1(O)[C@H]2Cc3ccc(O)c4c3[C@@]1(CCN2CC1CC1)[C@H]5O4` [nor-BNI, nor-binaltorphimine], on kappa opioid receptor, the Ki is 4.9 ± 0.3 nM and the “affinity of kappa receptors (in words)” value is listed as “high affinities”.

In the case of `O=C1C(=Cc2ccccc2)C[C@@]2(O)[C@H]3Cc4ccc(O)c5c4[C@@]2(CCN3CC2CC2)[C@H]1O5` [BNTX, 7-Benzylidenenaltrexone], the Ki on kappa opioid receptor (read-out: Kappa (Ki)) amounted to 172 ± 19 nM; on kappa-delta heterodimer (read-out: Kappa-Delta (Ki)), 98 ± 19 nM.

On to `CCC12CCN(CC3(O)CC3)C(Cc3ccc(O)cc31)C2(C)C` (stereo not shown) [Bremazocine], for which the figures for the Ki at kappa opioid receptor and on kappa-delta heterodimer (Kappa-Delta (Ki)) were 0.4 ± 0.11 nM and 1.2 ± 0.1 nM, respectively.

In the case of `CC[C@]12CCN(CC3CC3)[C@H](C(=O)c3ccc(O)cc31)[C@@H]2C` [EKC, ethylketocyclazocine], the Ki on kappa opioid receptor was determined as 5.7 ± 0.79 nM; at kappa-delta heterodimer (Kappa-Delta (Ki)), 2.6 ± 0.2 nM.

`Oc1ccc2c3c1O[C@H]1c4[nH]c5ccccc5c4C[C@@]4(O)[C@@H](C2)N(CC2CC2)CC[C@]314` [Naltrinole]: the Ki is 44.3 ± 1.1 nM at kappa opioid receptor and 44 ± 1.1 nM at kappa-delta heterodimer (Kappa-Delta (Ki)).
